{"source": "paper PMC12707263", "about": "(ACS Pharmacology & Translational Science, 2025)", "key": {"[1]": {"system": "24 kinase targets associated with B-cell malignancy signaling cascades", "assay": "HotSpot profile across the panel", "assay_type": "biochemical"}, "[2]": {"details": "reported values; ref not given; cited from earlier work"}, "OCI-Ly10 cells": {"system": "OCI-Ly10 cells", "assay": "Pairwise 10 × 10 matrix combination with venetoclax, Cell Titer Glo viability", "details": "for synergistic cell killing when combined with venetoclax: ΔBlissSum"}, "HBL1 cells": {"system": "HBL1 cells", "assay": "Pairwise 10 × 10 matrix combination with venetoclax, Cell Titer Glo viability", "details": "venetoclax 1000 nM to 3.9 nM"}, "REC-1 cells": {"system": "REC-1 cells", "assay": "Pairwise 10 × 10 matrix combination with venetoclax, Cell Titer Glo viability", "details": "venetoclax 10000 nM to 39 nM"}}, "note": "Entries after “also recorded” stand apart in the source; their conditions may differ."}
{"smiles": "CC#CC(=O)N[C@H]1CCCN(c2c(F)cc(C(N)=O)c3[nH]c(C)c(C)c23)C1", "note": "[Branebrutinib]", "values": [{"measurement": "off-target profile across the 24 kinase panel", "setting": "[1]", "value": "remarkably free of any additional off target activity"}, {"measurement": "fraction unbound (FU)", "setting": "[2]", "value": 1.2, "unit": "% FU"}]}
{"smiles": "C=CC(=O)N1CCC([C@@H]2CCNc3c(C(N)=O)c(-c4ccc(Oc5ccccc5)cc4)nn32)CC1", "note": "[Zanubrutinib]", "values": [{"measurement": "off-target profile across the 24 kinase panel", "setting": "[1]", "value": "most promiscuous beyond BMX and BLK"}, {"measurement": "synergistic cell killing when combined with venetoclax", "setting": "OCI-Ly10 cells", "value": "similar, broad synergistic cell killing across multiple concentration ranges"}, {"measurement": "fraction unbound (FU)", "setting": "[2]", "value": 6, "unit": "% FU"}]}
{"smiles": "CC1(C)CCC(CN2CCN(c3ccc(C(=O)NS(=O)(=O)c4ccc(NCC5CCOCC5)c([N+](=O)[O-])c4)c(Oc4cnc5[nH]ccc5c4)c3)CC2)=C(c2ccc(Cl)cc2)C1", "note": "[Venetoclax]", "values": [{"measurement": "single agent activity (cytotoxicity)", "setting": "HBL1 cells", "value": "no single agent activity"}, {"measurement": "single agent activity (cytotoxicity)", "setting": "REC-1 cells", "value": "no single agent activity"}, {"measurement": "single agent activity (cytotoxicity)", "setting": "OCI-Ly10 cells; venetoclax 1000 nM to 3.9 nM", "value": "no single agent activity"}]}
{"smiles": "C=CC(=O)N1CCC[C@@H](n2nc(-c3ccc(Oc4ccccc4)cc3)c3c(N)ncnc32)C1", "note": "[Ibrutinib]", "values": [{"measurement": "off-target profile across the 24 kinase panel", "setting": "[1]", "value": "most promiscuous beyond BMX and BLK"}]}
{"smiles": "C=CC(=O)Nc1cccc(Oc2nc(Nc3ccc(N4CCN(C)CC4)cc3)nc3ccoc23)c1", "note": "[Poseltinib]", "values": [{"measurement": "off-target profile across the 24 kinase panel", "setting": "[1]", "value": "most promiscuous beyond BMX and BLK"}, {"measurement": "synergistic cell killing when combined with venetoclax", "setting": "OCI-Ly10 cells", "value": "more focal in nature"}]}
{"smiles": "C=CC(=O)N1CCC(CNc2ncnc(N)c2-c2ccc(Oc3ccccc3)cc2)CC1", "note": "[Evobrutinib]", "values": [{"measurement": "off-target profile across the 24 kinase panel", "setting": "[1]", "value": "remarkably free of any additional off target activity"}]}
{"smiles": "C=CC(=O)N(C)CCOc1c(N)ncnc1-c1cc(F)cc(NC(=O)c2ccc(C3CC3)cc2F)c1C", "note": "[Remibrutinib]", "values": [{"measurement": "off-target profile across the 24 kinase panel", "setting": "[1]", "value": "most selective; also recorded: remarkably free of any additional off target activity"}, {"measurement": "synergistic cell killing when combined with venetoclax", "setting": "OCI-Ly10 cells", "value": "similar, broad synergistic cell killing across multiple concentration ranges"}]}
{"smiles": "CC#CC(=O)N1CCC[C@H]1c1nc(-c2ccc(C(=O)Nc3ccccn3)cc2)c2c(N)nccn12", "note": "[Acalabrutinib]", "values": [{"measurement": "off-target profile across the 24 kinase panel", "setting": "[1]", "value": "most selective; also recorded: remarkably free of any additional off target activity"}, {"measurement": "synergistic cell killing when combined with venetoclax", "setting": "OCI-Ly10 cells", "value": "more focal in nature"}, {"measurement": "fraction unbound (FU)", "setting": "[2]", "value": 2.5, "unit": "% FU"}]}
{"smiles": "CC#CC(=O)N1CC[C@@H](n2c(=O)n(-c3ccc(Oc4ccccc4)cc3)c3c(N)ncnc32)C1", "note": "[Tirabrutinib]", "values": [{"measurement": "off-target profile across the 24 kinase panel", "setting": "[1]", "value": "most selective; also recorded: remarkably free of any additional off target activity"}, {"measurement": "fraction unbound (FU)", "setting": "[2]", "value": 8.3, "unit": "% FU"}]}
{"smiles": "C[C@H]1CN(C2COC2)CCN1c1ccc(Nc2cc(-c3ccnc(N4CCn5c(cc6c5CC(C)(C)C6)C4=O)c3CO)cn(C)c2=O)nc1", "note": "[Fenebrutinib]", "values": [{"measurement": "off-target profile across the 24 kinase panel", "setting": "[1]", "value": "most selective; also recorded: remarkably free of any additional off target activity"}]}
{"smiles": "CC(C)(/C=C(\\C#N)C(=O)N1CCC[C@@H](n2nc(-c3ccc(Oc4ccccc4)cc3F)c3c(N)ncnc32)C1)N1CCN(C2COC2)CC1", "note": "[Rilzabrutinib]", "values": [{"measurement": "off-target profile across the 24 kinase panel", "setting": "[1]", "value": "remarkably free of any additional off target activity"}, {"measurement": "synergistic cell killing when combined with venetoclax", "setting": "OCI-Ly10 cells", "value": "similar, broad synergistic cell killing across multiple concentration ranges"}]}
